ChEMBL document CHEMBL5260832, “Hepatoprotective natural triterpenoids” (Eur J Med Chem, 2018)

How the values were obtained:
[1] = Hepatotoxicity in D-GaIN induced in Wistar rat model hepatocyte assessed as reduction in PLA2 level; assay type: toxicity, cell-based
Hepatocyte [2] = assay: Hepatoprotective activity against D-GaIN/TNFalpha-induced cell death in mouse hepatocyte at 100 uM relative to control; assay type: functional, cell-based; details: Mus musculus, Hepatocyte
[3] = Hepatotoxicity in rat assessed as reduction in GPT level at 1.0 mg/mL measured after 48 hrs (reference value: 291 IU/L); assay type: toxicity; details: in vivo
L02 = assay: Hepatoprotective activity against D-GaIN-induced cell damage in human HL7702 cells assessed as increase in cell survival at 10 uM relative to control; assay type: functional
Hepatocyte [4] = assay: Hepatoprotective activity against D-GaIN/TNFalpha -induced cell death in mouse hepatocyte assessed as inhibition of cell death; assay type: functional, cell-based; parameters: Activity: concentration or dose not given beside the values
[5] = Antiproliferative activity against rat HSC-T6 cells assessed as reduction in cell viability incubated for 48 hrs by MTT assay; assay type: functional, cell-based; details: HSC-T6, 48 h
Mus musculus [6] = organism: Mus musculus; assay: Hepatoprotective activity in CCl4-induced toxicity in liver injured mouse assessed as increase in inhibition of liver damage relative to control; assay type: functional; parameters: concentration or dose not given beside the values
Mus musculus [7] = assay: Hepatoprotective activity against D-GaIN/CCl4 induced liver injury mouse model assessed as reduction in GPT level at 30 microg/kg, iv relative to control; assay type: functional; parameters: scale not given: the % may be the effect or the level left; details: dose 30 µg/kg

## CC1(C)[C@@H](O[C@@H]2O[C@H](C(=O)O)[C@@H](O)[C@H](O)[C@H]2O[C@@H]2O[C@H](C(=O)O)[C@@H](O)[C@H](O)[C@H]2O)CC[C@]2(C)[C@H]3C(=O)C=C4[C@@H]5C[C@]6(C)C[C@@H](OC6=O)[C@]5(C)CC[C@@]4(C)[C@]3(C)CC[C@@H]12
[1]
  IC50: 32.2 µM

## CC1=C2C3=CC[C@@H]4[C@@]5(C)C[C@@H](O)[C@H](O)[C@@](C)(CO)[C@@H]5CC[C@@]4(C)[C@]3(C)CC[C@@]2(C(=O)O)CC[C@H]1C
Hepatocyte [2]
  IC50: 51 µM

## CC1(C)CC[C@]2(C(=O)O[C@@H]3O[C@H](CO)[C@@H](O)[C@H](O)[C@H]3O)CC[C@]3(C)C(=CC[C@@H]4[C@@]5(C)CC[C@H](O)[C@@](C)(C(=O)O)[C@@H]5CC[C@]43C)[C@@H]2C1
[3]
  Activity: 137 IU/L

## CC(CC(=O)C[C@@H](C)C1=CC(=O)[C@@]2(C)[C@@H]3C(=O)C[C@H]4C(C)(C)[C@@H](O)CC[C@]4(C)[C@H]3C(=O)C[C@]12C)C(=O)O (stereo partly drawn)
L02
  Activity: 75%

## C[C@@H]1C(=O)[C@]2(C)CC[C@@]34C[C@@]56OC(=O)C[C@@H]5OC(C)(C)[C@H]6C[C@@H](O)[C@@H]3C(=O)[C@]3(O[C@@H]5[C@@H](OC(=O)[C@@H]5C)[C@H]1[C@@H]32)O4
Hepatocyte [4]
  Activity: 37.6%

## C/C(=C\CCC(C)(O)[C@H]1C[C@H](O)[C@@]2(C)C3=C(C(=O)C[C@]12C)[C@@]1(C)CC[C@H](O)C(C)(C)[C@@H]1C[C@@H]3O)C(=O)O (stereo partly drawn)
L02
  Activity: 43%

## CC1=CC[C@H]([C@@H](C)[C@H]2CC[C@@]3(C)CCC[C@H]4C(C)(C)O[C@@H]5CC(=O)O[C@@]54CC(=O)[C@H](O)C[C@]23C)OC1=O
Hepatocyte [4]
  Activity: 37.6%

## CC1(C)CC[C@]2(N)C(=O)C[C@]3(C)C(=CC[C@@H]4[C@@]5(C)C[C@H](O)[C@H](O)C(CO)(CO)[C@@H]5CC[C@]43C)[C@@H]2C1
[5]
  IC50: 5.27 µM

## C/C(CC(=O)CC(C)C(=O)O)=C1/CC(=O)[C@@]2(C)C3=C(C(=O)C[C@]12C)[C@@]1(C)CC[C@H](O)C(C)(C)[C@@H]1CC3=O (stereo partly drawn)
L02
  Activity: 55%

## CC1(C)CC[C@]2(C(=O)O[C@@H]3O[C@H](CO[C@@H]4O[C@H](CO)[C@@H](O)[C@H](O)[C@H]4O)[C@@H](O)[C@H](O[C@@H]4O[C@H](CO)[C@@H](O)[C@H](O)[C@H]4O)[C@H]3O)CC[C@]3(C)C(=CC[C@@H]4[C@@]5(C)CC[C@H](O)[C@@](C)(C(=O)O)[C@@H]5CC[C@]43C)[C@@H]2C1
[3]
  Activity: 279 IU/L

## CC1(C)CC[C@]2(C(=O)O[C@@H]3O[C@H](CO[C@@H]4O[C@H](CO)[C@@H](O)[C@H](O)[C@H]4O)[C@@H](O)[C@H](O[C@@H]4O[C@H](CO)[C@@H](O)[C@H](O)[C@H]4O)[C@H]3O)CC[C@]3(C)C(=CC[C@@H]4[C@@]5(C)CC[C@H](O[C@@H]6O[C@H](CO)[C@@H](O)[C@H](O)[C@H]6O)[C@@](C)(C(=O)O)[C@@H]5CC[C@]43C)[C@@H]2C1
[3]
  Activity: 279 IU/L

## C[C@@H]1O[C@@H](O[C@H]2[C@H](OC(=O)[C@]34CCC(C)(C)C[C@H]3C3=CC[C@@H]5[C@@]6(C)C[C@H](O)[C@H](O[C@@H]7O[C@H](CO)[C@@H](O)[C@H](O)[C@H]7O)[C@](C)(CO)[C@@H]6CC[C@@]5(C)[C@]3(C)C[C@H]4O)OC[C@H](O)[C@@H]2O)[C@H](O)[C@H](O)[C@H]1O[C@@H]1OC[C@@H](O)[C@H](O[C@@H]2OC[C@](O)(CO)[C@H]2O)[C@H]1O
[5]
  IC50: 1.04 µM

## C[C@H]1[C@H](C)CC[C@]2(C(=O)O)CC[C@]3(C)C(=CC(=O)[C@@H]4[C@@]5(C)C[C@@H](O)[C@H](O)[C@@](C)(CO)[C@@H]5CC[C@]43C)[C@H]12
Mus musculus [6]
  Activity: 25.6%

## CC1(C)CC[C@]2(N)C(=O)C[C@]3(C)C(=CC[C@@H]4[C@@]5(C)C[C@H](O)[C@H](O[C@@H]6O[C@H](CO)[C@@H](O)[C@H](O)[C@H]6O)C(CO)(CO)[C@@H]5CC[C@]43C)[C@@H]2C1
[5]
  IC50: 69.6 µM

## C[C@H]1[C@H](C)CC[C@]2(CO)CC[C@]3(C)C(=CC[C@@H]4[C@@]5(C)C[C@@H](O)[C@H](O)[C@@](C)(CO)[C@@H]5CC[C@]43C)[C@H]12
Mus musculus [6]
  Activity: 39.7%

## C=C(C)[C@@H]1CC[C@]2(C(=O)O)CC[C@]3(C)[C@H](CC[C@@H]4[C@@]5(C)C[C@@H](O)[C@H](O)[C@](C)(CO)[C@@H]5[C@H](O)C[C@]43C)[C@@H]12
Hepatocyte [4]; Mus musculus, Hepatocyte
  IC50: 51.2 µM

## CC(=O)[C@H]1CC(=O)[C@@]2(C)C3=C(C(=O)C[C@]12C)[C@@]1(C)CCC(=O)C(C)(C)[C@@H]1C[C@@H]3O
L02
  Activity: 58%

## C[C@@H]1O[C@@H](O[C@H]2[C@H](OC(=O)[C@]34CCC(C)(C)C[C@H]3C3=CC[C@@H]5[C@@]6(C)C[C@H](O)[C@H](O[C@@H]7O[C@H](CO)[C@@H](O)[C@H](O)[C@H]7O)C(CO)(CO)[C@@H]6CC[C@@]5(C)[C@]3(C)C[C@H]4O)OC[C@H](O)[C@@H]2O)[C@H](O)[C@H](O)[C@H]1O[C@@H]1OC[C@@H](O)[C@H](O[C@@H]2OC[C@](O)(CO)[C@H]2O)[C@H]1O [PLATYCODIN D]
[5]
  IC50: 1.77 µM

## CC(C)=CCC[C@@](C)(O)[C@H]1CC[C@]2(C)[C@@H]1[C@H](O)C[C@@H]1[C@@]3(C)CC[C@H](O[C@@H]4O[C@H](CO)[C@@H](O)[C@H](O)[C@H]4O[C@@H]4O[C@H](CO)[C@@H](O)[C@H](O)[C@H]4O)C(C)(C)[C@@H]3CC[C@]12C
Mus musculus [7]
  Activity: 34%

## CC1(C)CC[C@]2(C(=O)O[C@@H]3O[C@H](CO[C@@H]4O[C@H](CO)[C@@H](O)[C@H](O)[C@H]4O)[C@@H](O)[C@H](O)[C@H]3O)CC[C@]3(C)C(=CC[C@@H]4[C@@]5(C)CC[C@H](O[C@@H]6O[C@H](CO)[C@@H](O)[C@H](O)[C@H]6O)[C@@](C)(C(=O)O)[C@@H]5CC[C@]43C)[C@@H]2C1
[3]
  Activity: 279 IU/L

## CC(=O)OC[C@@]1(C)[C@@H]2CC[C@]3(C)[C@H](C(=O)C=C4[C@@H]5[C@@H](C)[C@H](C)CC[C@]5(C(=O)O)CC[C@]43C)[C@@]2(C)CC(=O)[C@@H]1O
Mus musculus [6]
  Activity: 35.9%

## C[C@@H]1O[C@@H](O[C@H]2[C@H](OC(=O)[C@]34CCC(C)(C)C[C@H]3C3=CC[C@@H]5[C@@]6(C)C[C@H](O)[C@H](O[C@@H]7O[C@H](CO)[C@@H](O)[C@H](O)[C@H]7O)C(CO)(CO)[C@@H]6CC[C@@]5(C)[C@]3(C)C[C@H]4O)OC[C@H](O)[C@@H]2O)[C@H](O)[C@H](O)[C@H]1O[C@@H]1OC[C@@H](O)[C@H](O)[C@H]1O
[5]
  IC50: 8.24 µM

## CC(C)=CCC[C@](C)(O[C@@H]1O[C@H](CO)[C@@H](O)[C@H](O)[C@H]1O)[C@H]1CC[C@]2(C)[C@@H]1[C@H](O)C[C@@H]1[C@@]3(C)CC[C@H](O)C(C)(C)[C@@H]3CC[C@]12C
Mus musculus [7]
  Activity: 76%

## CC(=O)OC[C@@]1(C)[C@@H]2CC[C@]3(C)[C@H](C(=O)C=C4[C@@H]5[C@@H](C)[C@H](C)CC[C@]5(C(=O)O)CC[C@]43C)[C@@]2(C)CC(=O)[C@@H]1OC(C)=O
Mus musculus [6]
  Activity: 22%

## C[C@@]1(CO)CC[C@]2(C(=O)O[C@@H]3O[C@H](CO)[C@@H](O)[C@H](O)[C@H]3O)CC[C@]3(C)C(=CC[C@@H]4[C@@]5(C)CC[C@H](O)[C@@](C)(C(=O)O)[C@@H]5CC[C@]43C)[C@@H]2C1
[3]
  Activity: 206 IU/L

## CC(C)=CCC[C@](C)(O)[C@H]1CC[C@]2(C)[C@@H]1[C@H](O)C[C@@H]1[C@@]3(C)CC[C@H](O)C(C)(C)[C@@H]3[C@@H](O[C@@H]3O[C@H](CO)[C@@H](O)[C@H](O)[C@H]3O[C@@H]3O[C@H](CO)[C@@H](O)[C@H](O)[C@H]3O)C[C@]12C [GINSENOSIDE RF]
Mus musculus [7]
  Activity: 77%

## C/C(=C/C(=O)CC(C)C(=O)O)[C@H]1CC(=O)[C@@]2(C)C3=C(C(=O)C[C@]12C)[C@@]1(C)CC[C@H](O)C(C)(C)[C@@H]1C[C@@H]3O (stereo partly drawn)
L02
  Activity: 65%

## CC(C)=CCC[C@@](C)(O)[C@H]1CC[C@]2(C)[C@@H]1[C@H](O)C[C@@H]1[C@@]3(C)CC[C@H](O)C(C)(C)[C@@H]3[C@@H](O[C@@H]3O[C@H](CO)[C@@H](O)[C@H](O)[C@H]3O[C@@H]3O[C@@H](C)[C@H](O)[C@@H](O)[C@H]3O)C[C@]12C
Mus musculus [7]
  Activity: 50%

## CC(C)=CCC[C@](C)(O)[C@H]1CC[C@]2(C)[C@@H]1[C@H](O)C[C@@H]1[C@@]3(C)CC[C@H](O[C@@H]4O[C@H](CO)[C@@H](O)[C@H](O)[C@H]4O[C@@H]4O[C@H](CO)[C@@H](O)[C@H](O)[C@H]4O)C(C)(C)[C@@H]3CC[C@]12C
Mus musculus [7]
  Activity: 63%

## CC(CC(=O)C[C@@H](C)[C@H]1C[C@H](O)[C@@]2(C)C3=C(C(=O)C[C@]12C)[C@@]1(C)CC[C@H](O)C(C)(C)[C@@H]1C[C@@H]3O)C(=O)O (stereo partly drawn)
L02
  Activity: 76%

## CC1(C)CC[C@]2(C(=O)O)[C@H](O)C[C@]3(C)C(=CC[C@@H]4[C@@]5(C)C[C@H](O)[C@H](O[C@@H]6O[C@H](CO)[C@@H](O)[C@H](O)[C@H]6O)C(CO)(CO)[C@@H]5CC[C@]43C)[C@@H]2C1
[5]
  IC50: 13.4 µM

## COC(=O)[C@]12CC[C@@H](C)[C@H](C)[C@H]1C1=CC[C@@H]3[C@@]4(C)C[C@@H](OC(C)=O)[C@H](O)[C@@](C)(COC(C)=O)[C@@H]4CC[C@@]3(C)[C@]1(C)CC2
Mus musculus [6]
  Activity: 54.2%

## COC(=O)[C@]12CC[C@@H](C)[C@H](C)[C@H]1C1=CC[C@@H]3[C@@]4(C)CC(=O)[C@H](O)[C@@](C)(COC(C)=O)[C@@H]4CC[C@@]3(C)[C@]1(C)CC2
Mus musculus [6]
  Activity: 46.4%
